According to article PMC5397059, “Design, synthesis and structure-activity relationship study of wollamide B; a new potential anti TB agent” (PLoS ONE, 2017):
Where two headings read alike, the source gives them in different places.

Conditions: amide bond, 18-membered ring, HATU/HOBt/DIEA

CC(C)C[C@H]1NC(=O)[C@H](CC(C)C)N(C)C(=O)[C@H](Cc2cn(C(=O)OC(C)(C)C)c3ccccc23)NC(=O)[C@@H](CCCNC(=O)OC(C)(C)C)NC(=O)[C@H](CC(=O)NC(c2ccccc2)(c2ccccc2)c2ccccc2)N(C)C(=O)[C@H](C(C)C)NC1=O [cyclo(Val-N-Me-Asn(Trt)-D-Orn(Boc)-Trp(Boc)-N-Me-Leu-D-Leu)]
ring closure, isolated yield (from H-Val-MeAsn(Trt)-dOrn(Boc)-Trp(Boc)-MeLeu-dLeu-OH): 80%

COc1ccc(C[C@@H]2NC(=O)[C@@H](CCCNC(=O)OC(C)(C)C)NC(=O)[C@H](CC(=O)NC(c3ccccc3)(c3ccccc3)c3ccccc3)NC(=O)[C@H](C(C)C)NC(=O)[C@@H](CC(C)C)NC(=O)[C@H](CC(C)C)NC2=O)cc1 [cyclo(D-Leu-Val-Asn(Trt)-D-Orn(Boc)-Phe(4-OMe)-Leu)]
ring closure, isolated yield (from H-dLeu-Val-Asn(Trt)-dOrn(Boc)-Phe(4-OMe)-Leu-OH): 41%

CC(C)C[C@@H]1NC(=O)[C@H](Cc2cn(C(=O)OC(C)(C)C)c3ccccc23)NC(=O)[C@@H](CCCNC(=O)OC(C)(C)C)NC(=O)[C@H](CC(=O)NC(c2ccccc2)(c2ccccc2)c2ccccc2)NC(=O)[C@H](C(C)C)NC(=O)[C@@H](CC(C)C)NC1=O [cyclo (Trp (Boc)-D-Orn(Boc)-Asn(Trt)-Val-D-Leu-Leu)]
ring closure, isolated yield (from H-dLeu-Val-Asn(Trt)-dOrn(Boc)-Trp(Boc)-Leu-OH): 68%

CC[C@H](C)[C@@H]1NC(=O)[C@H](CC(C)C)NC(=O)[C@H](Cc2cn(C(=O)OC(C)(C)C)c3ccccc23)NC(=O)[C@@H](CCCNC(=O)OC(C)(C)C)NC(=O)[C@H](CC(=O)NC(c2ccccc2)(c2ccccc2)c2ccccc2)NC(=O)[C@H](C(C)C)NC1=O [cyclo(Asn(Trt)-D-Orn(Boc)-Trp(Boc)-Leu-Ile-Val)]
ring closure, isolated yield (from H-Asn(Trt)-dOrn(Boc)-Trp(Boc)-Leu-Ile-Val-OH): 47%

CC(C)C[C@H]1NC(=O)[C@H](C)NC(=O)[C@H](Cc2cn(C(=O)OC(C)(C)C)c3ccccc23)NC(=O)[C@@H](CCCNC(=O)OC(C)(C)C)NC(=O)[C@H](CC(=O)NC(c2ccccc2)(c2ccccc2)c2ccccc2)NC(=O)[C@H](C(C)C)NC1=O [cyclo(Trp (Boc)-D-Orn(Boc)-Asn(Trt)-Val-D-Leu-Ala)]
ring closure, isolated yield (from H-dLeu-Val-Asn(Trt)-dOrn(Boc)-Trp(Boc)-Ala-OH): 45%

cyclo(D-Phe(4-Cl)-D-Orn(Boc)-Asn(Trt)-Val-D-Leu-Leu)
ring closure, isolated yield: 43%

CC(C)C[C@@H]1NC(=O)[C@H](Cc2cn(C(=O)OC(C)(C)C)c3ccccc23)NC(=O)[C@@H](CCCNC(=O)OC(C)(C)C)NC(=O)[C@H](CC(=O)NC(c2ccccc2)(c2ccccc2)c2ccccc2)NC(=O)[C@H](C(C)C)NC(=O)[C@@H](C)NC1=O [cyclo(Trp(Boc)-D-Orn(Boc)-Asn(Trt)-Val-D-Ala-Leu)]
ring closure, isolated yield (from H-dAla-Val-Asn(Trt)-dOrn(Boc)-Trp(Boc)-Leu-OH): 64%

CC(C)C[C@@H]1NC(=O)[C@H](Cc2cn(C(=O)OC(C)(C)C)c3ccccc23)NC(=O)[C@@H](CCCNC(=O)OC(C)(C)C)NC(=O)[C@H](CC(=O)NC(c2ccccc2)(c2ccccc2)c2ccccc2)NC(=O)[C@H](C(C)C)N(C)C(=O)[C@@H](CC(C)C)NC1=O [cyclo(D-Leu-N-Me-Val-Asn(Trt)-D-Orn(Boc)-Trp(Boc)-Leu)]
ring closure, isolated yield (from H-dLeu-MeVal-Asn(Trt)-dOrn(Boc)-Trp(Boc)-Leu-OH): 60%

CC[C@H](C)[C@@H]1NC(=O)[C@H]([C@@H](C)CC)NC(=O)[C@@H](CC(C)C)NC(=O)[C@H](CC(C)C)NC(=O)[C@H](Cc2cn(C(=O)OC(C)(C)C)c3ccccc23)NC(=O)[C@@H](CCCNC(=O)OC(C)(C)C)NC1=O [cyclo(D-Leu-Ile-Ile-D-Orn(Boc)-Trp(Boc)-Leu)]
ring closure, isolated yield (from H-dLeu-Ile-Ile-dOrn(Boc)-Trp(Boc)-Leu-OH): 54%

CC(C)C[C@@H]1NC(=O)[C@H](Cc2cn(C(=O)OC(C)(C)C)c3ccccc23)NC(=O)[C@@H](CCCNC(=O)OC(C)(C)C)NC(=O)[C@H](CC(=O)NC(c2ccccc2)(c2ccccc2)c2ccccc2)NC(=O)[C@H](C(C)C)NC(=O)[C@@H](Cc2ccc(Cl)cc2)NC1=O [cyclo(D-Phe(4-Cl)-Val-Asn(Trt)-D-Orn(Boc)-Trp(Boc)-Leu)]
ring closure, isolated yield (from H-dPhe(4-Cl)-Val-Asn(Trt)-dOrn(Boc)-Trp(Boc)-Leu-OH): 53%

CC(C)C[C@H]1NC(=O)[C@H](CC(C)C)N(C)C(=O)[C@H](Cc2cn(C(=O)OC(C)(C)C)c3ccccc23)NC(=O)[C@@H](CCCNC(=O)OC(C)(C)C)NC(=O)[C@H](CC(=O)NC(c2ccccc2)(c2ccccc2)c2ccccc2)NC(=O)[C@H](C(C)C)N(C)C1=O [cyclo (Trp(Boc)-N-Me-Leu-D-Leu-N-Me-Val-Asn(Trt)-D-Orn(Boc))]
ring closure, isolated yield (from H-Trp(Boc)-MeLeu-dLeu-MeVal-Asn(Trt)-dOrn(Boc)-OH): 73%

CC[C@H](C)[C@@H]1NC(=O)[C@@H](CC(C)C)NC(=O)[C@H](CC(C)C)NC(=O)[C@H](Cc2cn(C(=O)OC(C)(C)C)c3ccccc23)NC(=O)[C@@H](CCCNC(=O)OC(C)(C)C)NC(=O)[C@H](CC(=O)NC(c2ccccc2)(c2ccccc2)c2ccccc2)NC1=O [cyclo (D-Leu-Ile-Asn(Trt)-D-Orn(Boc)-Trp(Boc)-Leu)]
ring closure, isolated yield (from H-dLeu-Ile-Asn(Trt)-dOrn(Boc)-Trp(Boc)-Leu-OH): 52%

CC(C)C[C@H]1NC(=O)[C@@H](Cc2ccc(Cl)cc2)NC(=O)[C@H](Cc2cn(C(=O)OC(C)(C)C)c3ccccc23)NC(=O)[C@@H](CCCNC(=O)OC(C)(C)C)NC(=O)[C@H](CC(=O)NC(c2ccccc2)(c2ccccc2)c2ccccc2)NC(=O)[C@H](C(C)C)NC1=O [cyclo(Asn(Trt)-D-Orn(Boc)-Trp(Boc)-D-Phe(4-Cl)-D-Leu-Val)]
ring closure, isolated yield (from H-Asn(Trt)-dOrn(Boc)-Trp(Boc)-dPhe(4-Cl)-dLeu-Val-OH): 54%

CC[C@H](C)[C@@H]1NC(=O)[C@@H](Cc2ccc(Cl)cc2)NC(=O)[C@H](CC(C)C)NC(=O)[C@H](Cc2cn(C(=O)OC(C)(C)C)c3ccccc23)NC(=O)[C@@H](CCCNC(=O)OC(C)(C)C)NC(=O)[C@@H](CCCNC(=O)OC(C)(C)C)NC1=O [cyclo(D-Phe (4-Cl)-Ile-D-Orn(Boc)-D-Orn(Boc)-Trp(Boc)-Leu)]
ring closure, isolated yield (from H-dPhe(4-Cl)-Ile-dOrn(Boc)-dOrn(Boc)-Trp(Boc)-Leu-OH): 55%

CC(C)C[C@@H]1NC(=O)[C@H](Cc2cn(C(=O)OC(C)(C)C)c3ccccc23)NC(=O)[C@@H](CCCNC(=O)OC(C)(C)C)NC(=O)[C@H](CC(=O)NC(c2ccccc2)(c2ccccc2)c2ccccc2)NC(=O)[C@H](C)NC(=O)[C@@H](CC(C)C)NC1=O [cyclo(Trp(Boc)-D-Orn(Boc)-Asn(Trt)-Ala-D-Leu-Leu)]
ring closure, isolated yield (from H-dLeu-Ala-Asn(Trt)-dOrn(Boc)-Trp(Boc)-Leu-OH): 56%

CC[C@H](C)[C@@H]1NC(=O)[C@H](Cc2cn(C(=O)OC(C)(C)C)c3ccccc23)NC(=O)[C@@H](CCCNC(=O)OC(C)(C)C)NC(=O)[C@H](CC(=O)NC(c2ccccc2)(c2ccccc2)c2ccccc2)NC(=O)[C@H](C(C)C)NC(=O)[C@@H](CC(C)C)NC1=O [cyclo(Asn(Trt)-D-Orn(Boc)-Trp(Boc)-Ile-D-Leu-Val)]
ring closure, isolated yield (from H-Asn(Trt)-dOrn(Boc)-Trp(Boc)-Ile-dLeu-Val-OH): 47%

CC(C)C[C@@H]1NC(=O)[C@H](Cc2cn(C(=O)OC(C)(C)C)c3ccccc23)NC(=O)[C@@H](CCCNC(=O)OC(C)(C)C)NC(=O)[C@H](C)NC(=O)[C@H](C(C)C)NC(=O)[C@@H](CC(C)C)NC1=O [cyclo(Trp(Boc)-D-Orn(Boc)-Ala-Val-D-Leu-Leu)]
ring closure, isolated yield (from H-dLeu-Val-Ala-dOrn(Boc)-Trp(Boc)-Leu-OH): 56%

CC(C)C[C@@H]1NC(=O)[C@H](C)NC(=O)[C@@H](CCCNC(=O)OC(C)(C)C)NC(=O)[C@H](CC(=O)NC(c2ccccc2)(c2ccccc2)c2ccccc2)NC(=O)[C@H](C(C)C)NC(=O)[C@@H](CC(C)C)NC1=O [cyclo(Ala-D-Orn (Boc)-Asn(Trt)-Val-D-Leu-Leu)]
ring closure, isolated yield (from H-dLeu-Val-Asn(Trt)-dOrn(Boc)-Ala-Leu-OH): 43%

CSCC[C@@H]1NC(=O)[C@@H](CC(C)C)NC(=O)[C@H](CC(C)C)NC(=O)[C@H](Cc2cn(C(=O)OC(C)(C)C)c3ccccc23)NC(=O)[C@@H](CCCNC(=O)OC(C)(C)C)NC(=O)[C@H](CC(=O)NC(c2ccccc2)(c2ccccc2)c2ccccc2)NC1=O [cyclo (D-Leu-Met-Asn(Trt)-D-Orn(Boc)-Trp(Boc)-Leu)]
ring closure, isolated yield (from H-dLeu-Met-Asn(Trt)-dOrn(Boc)-Trp(Boc)-Leu-OH): 40%

CC[C@H](C)[C@@H]1NC(=O)[C@@H](CC(C)C)NC(=O)[C@H](CC(C)C)NC(=O)[C@H](Cc2cn(C(=O)OC(C)(C)C)c3ccccc23)NC(=O)[C@@H](CCCNC(=O)OC(C)(C)C)NC(=O)[C@H](COC(C)(C)C)NC1=O [cyclo(Trp(Boc)-Leu-D-Leu-Ile-Ser(tBu)-D-Orn(Boc))]
ring closure, isolated yield (from H-Trp(Boc)-Leu-dLeu-Ile-Ser(tBu)-dOrn(Boc)-OH): 68%

CC[C@H](C)[C@@H]1NC(=O)[C@@H](CC(C)C)NC(=O)[C@H](CC(C)C)NC(=O)[C@H](Cc2cn(C(=O)OC(C)(C)C)c3ccccc23)NC(=O)[C@@H](CCCNC(=N)NS(=O)(=O)c2c(C)c(C)c3c(c2C)CC(C)(C)O3)NC(=O)[C@H](CC(=O)NC(c2ccccc2)(c2ccccc2)c2ccccc2)NC1=O [cyclo (D-Leu-Ile-Asn(Trt)-D-Arg (Pbf)-Trp(Boc)-Leu)]
ring closure, isolated yield (from H-dLeu-Ile-Asn(Trt)-dArg(Pbf)-Trp(Boc)-Leu-OH): 70%
